These are literature values, as cited in patent US20130143937A1, “CHLORTHALIDONE COMBINATIONS” (Boehringer Ingelheim International GmbH, priority 2003, published 2013).

The conditions of this series: in vivo.

Consider `NS(=O)(=O)c1cc(C2(O)NC(=O)c3ccccc32)ccc1Cl` (centres unmarked) [chlorthalidone, 2-chloro-5-(2,3-dihydro-1-hydroxy-3-oxo-1h-isoindol-1-yl)benzene-sulfonamide], for which the mean plasma half-life is 40 to 60 h. With `NS(=O)(=O)c1cc2c(cc1Cl)NCNS2(=O)=O` [hydrochlorothiazide], the mean plasma half-life entry is “about 24 hours”.
